# Measurements reported in patent US20120214847A1, “2-[1-PHENYL-5-HYDROXY-4a-SUBSTITUTED-HEXAHYDROCYCLOPENTA[F]INDAZOL-5-YL]ETHYL PHENYL DERIVATIVES AS GLUCOCORTICOID RECEPTOR LIGANDS” (Merck Sharp & Dohme Corp., priority 2009, published 2012).
# pEC50: −log10 of the molar value.
# Target: T1, human GR (Homo sapiens, UniProt P04150)
# T1 construct: naturally expresses the human GR; endogenous in cells
# T1 sequence (P04150 1-777): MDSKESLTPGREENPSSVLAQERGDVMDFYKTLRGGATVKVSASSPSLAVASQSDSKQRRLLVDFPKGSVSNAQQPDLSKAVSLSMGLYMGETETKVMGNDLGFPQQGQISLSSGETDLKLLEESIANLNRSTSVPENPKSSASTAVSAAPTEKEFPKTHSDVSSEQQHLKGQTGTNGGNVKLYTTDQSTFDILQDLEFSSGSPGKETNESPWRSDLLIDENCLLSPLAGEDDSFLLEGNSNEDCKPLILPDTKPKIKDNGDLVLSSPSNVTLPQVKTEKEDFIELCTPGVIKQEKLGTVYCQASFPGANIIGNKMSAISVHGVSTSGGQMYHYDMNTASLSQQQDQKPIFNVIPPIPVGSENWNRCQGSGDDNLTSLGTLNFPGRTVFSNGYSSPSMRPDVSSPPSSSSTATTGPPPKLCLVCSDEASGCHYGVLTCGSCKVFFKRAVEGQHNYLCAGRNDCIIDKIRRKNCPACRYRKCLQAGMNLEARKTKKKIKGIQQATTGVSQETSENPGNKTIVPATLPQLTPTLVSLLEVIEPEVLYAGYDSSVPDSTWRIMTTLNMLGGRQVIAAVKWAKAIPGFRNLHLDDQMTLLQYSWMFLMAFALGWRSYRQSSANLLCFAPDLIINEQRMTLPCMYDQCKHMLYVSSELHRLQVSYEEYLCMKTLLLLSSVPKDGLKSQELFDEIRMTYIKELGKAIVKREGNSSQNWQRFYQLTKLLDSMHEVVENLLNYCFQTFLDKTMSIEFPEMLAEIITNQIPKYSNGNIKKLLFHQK
# Test: Trans-activation modulation of glucocorticoid receptor (GRAMMER), MMTV-LUC reporter in A549 cells
# Format: cell-based
# Details: for Transactivation A549 Cells Grammer Emax (%) / Emax: Emax relative to the activity obtained with 300 nM dexamethasone; for Transactivation A549 Cells Grammer Emax (%) / pEC50: A549 cells; for pEC50: IP = inflection point, read-out: Transactivation A549 Cells Grammer IP; for Emax: A549, A549 cells, read-out: Transactivation A549 Cells Grammer Emax (%)
# Source text: Trans-Activation Modulation of Glucocorticoid Receptor (GRAMMER)
# This assay assesses the ability of test compounds to control transcription from the MMTV-LUC reporter gene in lung adenocarcinoma A549 cells or HeLa cells, a human […] cell line that naturally expresses the human GR. The assay measures induction of a modified MMTV LTR/promoter linked to the LUC reporter gene.
# The routine transient assay consists of plating 7,000-25,000 cells/well of a white, clear-bottom 96-well plate. Alternatively, 384-well plates can be used at a cell concentration of 10,000/well. The media that the cells are plated in is “exponential growth medium” which consists of phenol red-free RPMI1640 containing 10% FBS, 4 mM L-glutamine, 20 mM HEPES, 10 ug/mL human insulin, and 20 ug/mL gentamicin. Incubator conditions are 37° C. and 5% C02. The transfection is done in batch mode. The cells are trypsinized and counted to the right cell number in the proper amount of fresh media. It is then gently mixed with the FuGene6/DNA 25 mix and plated onto the 96 or 384-well plate, all the wells receive 100 uL or 40 uL, respectively, of medium+lipid/DNA complex then incubated 37° C. overnight. The transfection cocktail consists of serum-free OptiMEM, FuGene6 reagent and DNA. The manufacturer's (Roche Biochemical) protocol for cocktail setup is as follows: The lipid to DNA ratio is approximately 2.5:1 and the incubation time is 20 min at room temperature. Sixteen to 24 h after transfection, the cells are treated with dexamethasone to a final concentration of 10 nM as well as the compound of interest, such that final DMSO (vehicle) concentration is equal to or less than 1%. Each plate also contains samples that are treated with 10 nM dexamethasone alone, which is used as the 100% activity control. The cells are exposed to the compounds for 24 h. After 24 h, the cells are lysed by a Promega cell culture lysis buffer for approximately 30 min and then the luciferase activity in the extracts is assayed in the 96-well format luminometer. In 384 well format, Steady-Glo (Promega) or Steady-Lite (PerkinElmer) can be used by adding an equal volume of reagent to the media present in each well. Activity induced by 10 nM dexamethasone alone is set at 100% activity. Antagonist activity is calculated by determining the decrease in dexamethasone-induced activity in response to compound treatment relative to samples that were treated with dexamethasone alone. Results are expressed as % inhibition of 10 nM dexamethasone activity or as fold of 10 nM dexamethasone activity. This transactivation assay can be performed in an agonist and antagonist mode to identify these different activities.
# Activity of test compounds is calculated as the Emax relative to the activity obtained with 300 nM dexamethasone. […] The exemplified tissue selective glucocorticoid receptor modulators of the present invention display agonist activity in this assay of greater than 5% and less than 100%, and maximal transactivation activity less then maximal transrepression activity. The action of compounds is also tested in an antagonist mode (Anti-GRAMMER) in which the cells are treated with medium containing an agonist such as 10 nM DEX and the ability of agents to inhibit the activation by an agonist is measured.
Transactivation A549 Cells Grammer Emax (%),pEC50,Emax [%],Structure (SMILES)
19,6.97,–,"NC(=O)C(O)c1ccccc1CC[C@]1(O)CCC2=Cc3c(cnn3-c3ccc(F)cc3)C[C@@]21C1CC1 (single isomer, unassigned) [Example 3b]"
–,6.55,20,"CC[C@]12Cc3cnn(-c4ccccc4)c3C=C1CC[C@@]2(O)CC(O)c1ccccn1 (single isomer, unassigned) [Example 67a]"
10,6.76,–,"CC[C@]12Cc3cnn(-c4ccccc4)c3C=C1CC[C@@]2(O)CC(O)c1ccccn1 (single isomer, unassigned) [Example 67b]"
–,6.77,33,"CC[C@]12Cc3cnn(-c4ccc(F)cc4)c3C=C1CC[C@@]2(O)CC(O)c1ccc(F)cn1 (single isomer, unassigned) [Example 69a]"
26,6.95,–,"CC[C@]12Cc3cnn(-c4ccc(F)cc4)c3C=C1CC[C@@]2(O)CC(O)c1ccc(F)cn1 (single isomer, unassigned) [Example 69b]"
–,6.73,10,"OC(C[C@]1(O)CCC2=Cc3c(cnn3-c3ccc(F)cc3)C[C@@]21C1CC1)c1ccc(F)cn1 (single isomer, unassigned) [Example 79a]"
–,7.21,27,"NC(=O)c1cccnc1CC[C@]1(O)CCC2=Cc3c(cnn3-c3ccc(F)cc3)C[C@@]21C1CC1 [Example 1, 2-{2-[(4aR,5R)-4a-Cyclopropyl-1-(4-fluorophenyl)-5-hydroxy-1,4,4a,5,6,7-hexahydrocyclopenta[f]indazol-5-yl]ethyl}pyridine-3-carboxamide]"
–,6.94,14,"NC(=O)c1cc(F)cnc1CC[C@]1(O)CCC2=Cc3c(cnn3-c3ccc(F)cc3)C[C@@]21C1CC1 [Example 4, 2-{2-[(4aR,5R)-4a-Cyclopropyl-1-(4-fluorophenyl)-5-hydroxy-1,4,4a,5,6,7-hexahydrocyclopenta[f]indazol-5-yl]ethyl}-5-fluoropyridine-3-carboxamide]"
–,7.33,29,"CC[C@]12Cc3cnn(-c4cccnc4)c3C=C1CC[C@@]2(O)CCc1ccccc1C#N [Example 5, 2-{2-[(4aS,5R)-4a-Ethyl-5-hydroxy-1-(pyridin-3-yl)-1,4,4a,5,6,7-hexahydrocyclopenta[f]indazol-5-yl]ethyl}benzonitrile]"
–,6.75,26,CC[C@]12Cc3cnn(-c4ccccc4)c3C=C1CC[C@@]2(O)CCc1ccc(F)cc1C(N)=O [Example 6]
–,6.84,7,"NC(=O)c1ccccc1CC[C@]1(O)CCC2=Cc3c(cnn3-c3cccc(F)c3)C[C@@]21C1CC1 [Example 7, 2-{2-[(4aR,5R)-4a-Cyclopropyl-1-(3-fluorophenyl)-5-hydroxy-1,4,4a,5,6,7-hexahydrocyclopenta[f]indazol-5-yl]ethyl}benzamide]"
–,6.97,47,"CC[C@]12Cc3cnn(-c4ccc(F)cc4)c3C=C1CC[C@@]2(O)CCc1ccc(F)cc1C(N)=O [Example 8, 2-{2-[(4aS,5R)-4a-Ethyl-1-(4-fluorophenyl)-5-hydroxy-1,4,4a,5,6,7-hexahydrocyclopenta[f]indazol-5-yl]ethyl}-5-fluorobenzamide]"
–,7.12,15,"CC[C@]12Cc3cnn(-c4cccnc4)c3C=C1CC[C@@]2(O)CCc1ccc(F)cc1C#N [Example 9, 2-{2-[(4aS,5R)-4a-Ethyl-5-hydroxy-1-(pyridin-3-yl)-1,4,4a,5,6,7-hexahydrocyclopenta[f]indazol-5-yl]ethyl}-5-fluorobenzonitrile]"
–,6.94,20,"CC[C@]12Cc3cnn(-c4cccnc4)c3C=C1CC[C@@]2(O)CCc1cccc(F)c1C#N [Example 10, 2-{2-[(4aS,5R)-4a-Ethyl-5-hydroxy-1-(pyridin-3-yl)-1,4,4a,5,6,7-hexahydrocyclopenta[f]indazol-5-yl]ethyl}-6-fluorobenzonitrile]"
–,7.08,41,"CC[C@]12Cc3cnn(-c4cccc(F)c4)c3C=C1CC[C@@]2(O)CCc1ccccc1C(N)=O [Example 11, 2-{2-[(4aS,5R)-4a-Ethyl-1-(3-fluorophenyl)-5-hydroxy-1,4,4a,5,6,7-hexahydrocyclopenta[f]indazol-5-yl]ethyl}benzamide]"
–,7.64,58,"CC[C@]12Cc3cnn(-c4cccc(F)c4)c3C=C1CC[C@@]2(O)CCc1cccc(F)c1C(N)=O [Example 12, 2-{2-[(4aS,5R)-4a-Ethyl-1-(3-fluorophenyl)-5-hydroxy-1,4,4a,5,6,7-hexahydrocyclopenta[f]indazol-5-yl]ethyl}-6-fluorobenzamide]"
–,6.65,34,"CC[C@]12Cc3cnn(-c4cccnc4)c3C=C1CC[C@@]2(O)CCc1ccccc1C(N)=O [Example 13, 2-{2-[(4aS,5R)-4a-Ethyl-5-hydroxy-1-(pyridin-3-yl)-1,4,4a,5,6,7-hexahydrocyclopenta[f]indazol-5-yl]ethyl}benzamide]"
–,7.06,51,"CC[C@]12Cc3cnn(-c4cccnc4)c3C=C1CC[C@@]2(O)CCc1cccc(F)c1C(N)=O [Example 14, 2-{2-[(4aS,5R)-4a-Ethyl-5-hydroxy-1-(pyridin-3-yl)-1,4,4a,5,6,7-hexahydrocyclopenta[f]indazol-5-yl]ethyl}-6-fluorobenzamide]"
–,7.21,29,"CC[C@]12Cc3cnn(-c4ccccc4)c3C=C1CC[C@@]2(O)CCc1cccc(F)c1C#N [Example 15, 2-{2-[(4aS,5R)-4a-Ethyl-5-hydroxy-1-phenyl-1,4,4a,5,6,7-hexahydrocyclopenta[f]indazol-5-yl]ethyl}-6-fluorobenzonitrile]"
–,7.10,31,"CC[C@]12Cc3cnn(-c4ccc(F)cc4)c3C=C1CC[C@@]2(O)CCc1ccccn1 [Example 16, (4aS,5R)-4a-Ethyl-1-(4-fluorophenyl)-5-[2-(pyridin-2-yl)ethyl]-1,4,4a,5,6,7-hexahydrocyclopenta[f]indazol-5-ol]"
–,7.52,44,"CC[C@]12Cc3cnn(-c4ccc(F)cc4)c3C=C1CC[C@@]2(O)CCc1ncccc1F [Example 17, (4aS,5R)-4a-Ethyl-1-(4-fluorophenyl)-5-[2-(3-fluoropyridin-2-yl)ethyl]-1,4,4a,5,6,7-hexahydrocyclopenta[f]indazol-5-ol]"
–,7.28,32,"CC[C@]12Cc3cnn(-c4ccc(F)cc4)c3C=C1CC[C@@]2(O)CCc1cc(F)ccn1 [Example 18, (4aS,5R)-4a-Ethyl-1-(4-fluorophenyl)-5-[2-(4-fluoropyridin-2-yl)ethyl]-1,4,4a,5,6,7-hexahydrocyclopenta[f]indazol-5-ol]"
